Reference: patent US20010027213A1, “Use of pyrethroid compounds to promote hair growth” (priority 1998, published 2001)

tested on: C3H strain mice; assay: Hair growth on clipped back skin, repeat with minoxidil control, Example 5; format: in vivo; settings: 0.01%; Week 1
Protocol: (§1) The ability of topical administration of pyrethroid compounds to promote hair growth was assessed in female C3H strain mice (10 weeks old; n=5/group). Hair on the back skin of the mice was clipped carefully with an electric clipper. 5 μL/cm^2 of the five compositions tested in the examples above were applied to the mice daily. The level of hair growth at the applied skin areas were evaluated by unaided visual inspection at the indicated time. Cyclosporin A was used as a control.
The experiment described in Example 4 was repeated with a commercially available hair growth-promoting compound (5% minoxidil) as a control.

Structure (SMILES) | Level of hair growth (unaided visual inspection)
CC1(C)C(C=C(Cl)Cl)C1C(=O)OC(C#N)c1cccc(Oc2ccccc2)c1 (centres unmarked) [Cypermethrin, cypermethrin] | 0

same assay, conditions: 0.01%; Week 2

Structure (SMILES) | Level of hair growth (unaided visual inspection)
CC1(C)C(C=C(Cl)Cl)C1C(=O)OC(C#N)c1cccc(Oc2ccccc2)c1 (centres unmarked) [Cypermethrin, cypermethrin] | 0

same assay, conditions: 0.01%; Week 3

Structure (SMILES) | Level of hair growth (unaided visual inspection)
CC1(C)C(C=C(Cl)Cl)C1C(=O)OC(C#N)c1cccc(Oc2ccccc2)c1 (centres unmarked) [Cypermethrin, cypermethrin] | 0

same assay, conditions: 0.01%; Week 4

Structure (SMILES) | Level of hair growth (unaided visual inspection)
CC1(C)C(C=C(Cl)Cl)C1C(=O)OC(C#N)c1cccc(Oc2ccccc2)c1 (centres unmarked) [Cypermethrin, cypermethrin] | 0

same assay, conditions: 0.01%; Week 5

Structure (SMILES) | Level of hair growth (unaided visual inspection)
CC1(C)C(C=C(Cl)Cl)C1C(=O)OC(C#N)c1cccc(Oc2ccccc2)c1 (centres unmarked) [Cypermethrin, cypermethrin] | 0

same assay, conditions: 0.01%; Week 6

Structure (SMILES) | Level of hair growth (unaided visual inspection)
CC1(C)C(C=C(Cl)Cl)C1C(=O)OC(C#N)c1cccc(Oc2ccccc2)c1 (centres unmarked) [Cypermethrin, cypermethrin] | 0

same assay, conditions: 0.1%; Week 1

Structure (SMILES) | Level of hair growth (unaided visual inspection)
CC1(C)C(C=C(Cl)Cl)C1C(=O)OC(C#N)c1cccc(Oc2ccccc2)c1 (centres unmarked) [Cypermethrin, cypermethrin] | 0

same assay, conditions: 0.1%; Week 2

Structure (SMILES) | Level of hair growth (unaided visual inspection)
CC1(C)C(C=C(Cl)Cl)C1C(=O)OC(C#N)c1cccc(Oc2ccccc2)c1 (centres unmarked) [Cypermethrin, cypermethrin] | 0

same assay, conditions: 0.1%; Week 3

Structure (SMILES) | Level of hair growth (unaided visual inspection)
CC1(C)C(C=C(Cl)Cl)C1C(=O)OC(C#N)c1cccc(Oc2ccccc2)c1 (centres unmarked) [Cypermethrin, cypermethrin] | 5

same assay, conditions: 0.1%; Week 4

Structure (SMILES) | Level of hair growth (unaided visual inspection)
CC1(C)C(C=C(Cl)Cl)C1C(=O)OC(C#N)c1cccc(Oc2ccccc2)c1 (centres unmarked) [Cypermethrin, cypermethrin] | 5

same assay, conditions: 0.1%; Week 5

Structure (SMILES) | Level of hair growth (unaided visual inspection)
CC1(C)C(C=C(Cl)Cl)C1C(=O)OC(C#N)c1cccc(Oc2ccccc2)c1 (centres unmarked) [Cypermethrin, cypermethrin] | 5

same assay, conditions: 0.1%; Week 6

Structure (SMILES) | Level of hair growth (unaided visual inspection)
CC1(C)C(C=C(Cl)Cl)C1C(=O)OC(C#N)c1cccc(Oc2ccccc2)c1 (centres unmarked) [Cypermethrin, cypermethrin] | 5

same assay, conditions: 1%; Week 1

Structure (SMILES) | Level of hair growth (unaided visual inspection)
CC1(C)C(C=C(Cl)Cl)C1C(=O)OC(C#N)c1cccc(Oc2ccccc2)c1 (centres unmarked) [Cypermethrin, cypermethrin] | 0

same assay, conditions: 1%; Week 2

Structure (SMILES) | Level of hair growth (unaided visual inspection)
CC1(C)C(C=C(Cl)Cl)C1C(=O)OC(C#N)c1cccc(Oc2ccccc2)c1 (centres unmarked) [Cypermethrin, cypermethrin] | 0

same assay, conditions: 1%; Week 3

Structure (SMILES) | Level of hair growth (unaided visual inspection)
CC1(C)C(C=C(Cl)Cl)C1C(=O)OC(C#N)c1cccc(Oc2ccccc2)c1 (centres unmarked) [Cypermethrin, cypermethrin] | 5

same assay, conditions: 1%; Week 4

Structure (SMILES) | Level of hair growth (unaided visual inspection)
CC1(C)C(C=C(Cl)Cl)C1C(=O)OC(C#N)c1cccc(Oc2ccccc2)c1 (centres unmarked) [Cypermethrin, cypermethrin] | 5

same assay, conditions: 1%; Week 5

Structure (SMILES) | Level of hair growth (unaided visual inspection)
CC1(C)C(C=C(Cl)Cl)C1C(=O)OC(C#N)c1cccc(Oc2ccccc2)c1 (centres unmarked) [Cypermethrin, cypermethrin] | 5

same assay, conditions: 1%; Week 6

Structure (SMILES) | Level of hair growth (unaided visual inspection)
CC1(C)C(C=C(Cl)Cl)C1C(=O)OC(C#N)c1cccc(Oc2ccccc2)c1 (centres unmarked) [Cypermethrin, cypermethrin] | 5

same assay, conditions: concentrations of 0.1% and 1% in ethanol solutions

Structure (SMILES) | Promoting hair growth
CC1(C)C(C=C(Cl)Cl)C1C(=O)OC(C#N)c1cccc(Oc2ccccc2)c1 (centres unmarked) [Cypermethrin, cypermethrin] | effective in promoting hair growth

tested on: C3H strain mice; assay: Hair growth on clipped back skin, topical daily application, Example 4; format: in vivo; settings: 1% topical daily
Protocol: as §1, with “time.” for “time. Cyclosporin A was used as a control.”

Structure (SMILES) | Promoting hair growth
CC1(C)C(C=C(Cl)Cl)C1C(=O)OC(C#N)c1cccc(Oc2ccccc2)c1 (centres unmarked) [Cypermethrin, cypermethrin] | effective in promoting hair growth

same assay, conditions: Day 7; 1%, 5 μL/cm^2 daily; n=5/group

Structure (SMILES) | Level of hair growth (unaided visual inspection)
CC1(C)C(C=C(Cl)Cl)C1C(=O)OC(C#N)c1cccc(Oc2ccccc2)c1 (centres unmarked) [Cypermethrin, cypermethrin] | 0

same assay, conditions: Day 14; 1%, 5 μL/cm^2 daily; n=5/group

Structure (SMILES) | Level of hair growth (unaided visual inspection)
CC1(C)C(C=C(Cl)Cl)C1C(=O)OC(C#N)c1cccc(Oc2ccccc2)c1 (centres unmarked) [Cypermethrin, cypermethrin] | 0

same assay, conditions: Day 19; 1%, 5 μL/cm^2 daily; n=5/group

Structure (SMILES) | Level of hair growth (unaided visual inspection)
CC1(C)C(C=C(Cl)Cl)C1C(=O)OC(C#N)c1cccc(Oc2ccccc2)c1 (centres unmarked) [Cypermethrin, cypermethrin] | 2

same assay, conditions: Day 29; 1%, 5 μL/cm^2 daily; n=5/group

Structure (SMILES) | Level of hair growth (unaided visual inspection)
CC1(C)C(C=C(Cl)Cl)C1C(=O)OC(C#N)c1cccc(Oc2ccccc2)c1 (centres unmarked) [Cypermethrin, cypermethrin] | 4

same assay, conditions: Day 36; 1%, 5 μL/cm^2 daily; n=5/group

Structure (SMILES) | Level of hair growth (unaided visual inspection)
CC1(C)C(C=C(Cl)Cl)C1C(=O)OC(C#N)c1cccc(Oc2ccccc2)c1 (centres unmarked) [Cypermethrin, cypermethrin] | 5

tested on: mice (C3H strain); assay: Ear thickness (primary skin irritancy) after topical application, Example 1; format: in vivo; settings: 1% in ethanol; C3H mice
Protocol: The following example was performed to determine if pyrethroid compounds cause skin irritation (as indicated by ear thickness in mice). Skin irritants may contribute to promoting hair growth.
Prior to the experiment, ear thickness of mice (C3H strain, female, 16 weeks of age, n=3/group) was measured with a thickness gage (Mitsutoyo Corp.). After measuring ear thickness of both ears, 10 μL of ethanol was applied on left ear and 10 μL of a pyrethroid solution (1% pyrethroid compound in ethanol) was applied to the right ear. Ear thickness was measured for three consecutive days after administration.

Structure (SMILES) | Ear thickness compared to ethanol
CC1(C)C(C=C(Cl)Cl)C1C(=O)OC(C#N)c1cccc(Oc2ccccc2)c1 (centres unmarked) [Cypermethrin, cypermethrin] | did not increase ear thickness

same assay, conditions: day 0 (before application); C3H female mice, n=3

Structure (SMILES) | Right ear thickness [×0.01 mm]
CC1(C)C(C=C(Cl)Cl)C1C(=O)OC(C#N)c1cccc(Oc2ccccc2)c1 (centres unmarked) [Cypermethrin, cypermethrin] | 27.7

same assay, conditions: day 1; 10 μL of 1% in ethanol on right ear; C3H mice

Structure (SMILES) | Right ear thickness [×0.01 mm]
CC1(C)C(C=C(Cl)Cl)C1C(=O)OC(C#N)c1cccc(Oc2ccccc2)c1 (centres unmarked) [Cypermethrin, cypermethrin] | 27.7

same assay, conditions: day 2; 10 μL of 1% in ethanol on right ear; C3H mice

Structure (SMILES) | Right ear thickness [×0.01 mm]
CC1(C)C(C=C(Cl)Cl)C1C(=O)OC(C#N)c1cccc(Oc2ccccc2)c1 (centres unmarked) [Cypermethrin, cypermethrin] | 27.3

same assay, conditions: day 3; 10 μL of 1% in ethanol on right ear; C3H mice

Structure (SMILES) | Right ear thickness [×0.01 mm]
CC1(C)C(C=C(Cl)Cl)C1C(=O)OC(C#N)c1cccc(Oc2ccccc2)c1 (centres unmarked) [Cypermethrin, cypermethrin] | 28.0

tested on: mice of the C3H strain; assay: Skin irritancy on clipped back skin, visual score, Example 3; format: in vivo; settings: three repeated topical administration, 1% in ethanol
Protocol: This experiment was conducted to test the skin irritancy of the compositions of this invention on hair-growing areas of test subjects, i.e., female mice (10 weeks old) of the C3H strain (n=5 group). After clipping the hair of the back skin of mice with an electric clipper, 5 μL/cm^2 of each four composition tested in Examples 1 and 2 (at a concentration of 1% in an ethanol solution) were applied. The application was administered once a day, for 3 consecutive days. Skin irritation was evaluated by unaided visual inspection at the end of the third day.

Structure (SMILES) | Skin irritation (redness)
CC1(C)C(C=C(Cl)Cl)C1C(=O)OC(C#N)c1cccc(Oc2ccccc2)c1 (centres unmarked) [Cypermethrin, cypermethrin] | failed to cause skin irritation

tested on: mice (Sencar strain); assay: Ear thickness after TPA plus pyrethroid application, Example 2; format: in vivo; settings: day 0 (before application); Sencar female mice, n=3
Protocol: Another ear thickness experiment was performed. Ear thickness of mice (Sencar strain, female, 10 weeks of age, n =3/group) was measured with a thickness gage (Mitsutoyo Corp.). After measuring the thickness of both ears at the beginning of the experiment, 20 μL of 12-O-tetradecanoyl-phorbol 13-acetate (TPA) at a concentration of 10^−4 M in acetone was applied on both ears, followed by the application of 10 μL of ethanol on the left ears and 10 μL of the four compositions tested in Example 1 on the right ears (at a concentration of 1% of pyrethroid compound in ethanol solution). Again, ear thickness was monitored over three consecutive days following administration of the compositions.

Structure (SMILES) | Right ear thickness [×0.01 mm]
CC1(C)C(C=C(Cl)Cl)C1C(=O)OC(C#N)c1cccc(Oc2ccccc2)c1 (centres unmarked) [Cypermethrin, cypermethrin] | 24.0

same assay, conditions: day 1; 20 μL TPA 10^−4 M in acetone then 10 μL of 1% in ethanol; Sencar mice

Structure (SMILES) | Right ear thickness [×0.01 mm]
CC1(C)C(C=C(Cl)Cl)C1C(=O)OC(C#N)c1cccc(Oc2ccccc2)c1 (centres unmarked) [Cypermethrin, cypermethrin] | 26.7

same assay, conditions: day 2; 20 μL TPA 10^−4 M in acetone then 10 μL of 1% in ethanol; Sencar mice

Structure (SMILES) | Right ear thickness [×0.01 mm]
CC1(C)C(C=C(Cl)Cl)C1C(=O)OC(C#N)c1cccc(Oc2ccccc2)c1 (centres unmarked) [Cypermethrin, cypermethrin] | 28.3

same assay, conditions: day 3; 20 μL TPA 10^−4 M in acetone then 10 μL of 1% in ethanol; Sencar mice

Structure (SMILES) | Right ear thickness [×0.01 mm]
CC1(C)C(C=C(Cl)Cl)C1C(=O)OC(C#N)c1cccc(Oc2ccccc2)c1 (centres unmarked) [Cypermethrin, cypermethrin] | 27.3
